Values of other authors as cited in US11155746B2, “Compositions and methods for reducing hydrogen sulfide and microbial influenced corrosion in crude oil, natural gas, and in associated equipment” (priority 2017, dated 2021).

Details: atmospheric exposure

For `S` [H2S, hydrogen sulfide], the “exposure concentration that can be rapidly fatal” value is given as “above 600 ppm” and the “exposure concentration that can cause damage to internal organs” value is given as “above 100 ppm”.
